Assay results reported in a melting point compilation (Tetko et al.; mined from patent text by program, amines drawn as free bases though some values may be those of a salt).

| Compound | melting point [°C] |
| --- | --- |
| CCOC(=O)[C@@H]1OC(c2ccc(O)c(OCC)c2)O[C@H]1C(=O)OCC | 78 to 80 |
| CCOC(=O)NOC(=O)c1ccc(C(=O)ONC(=O)OCC)cc1 | 130 |
| CNC(=O)NN(CC(=O)OC)c1cccc(Cl)c1 | 121 to 122 |
| CCCCCc1c([N+](=O)[O-])cc([N+](=O)[O-])c2nc(C(F)(F)F)[nH]c12 | 86 to 88 |
| CC(C)=CCc1cc2cc(-c3cc(O)cc(O)c3)oc2cc1O | 183 to 184 |
| CC(C)Oc1cc2c(cc1O)C(=O)CC(C)(C)O2 | 138 to 139 |
| O=C(O)COc1cc(F)ccc1C(=S)NCc1nc2c(F)c(F)cc(F)c2s1 | 150 |
| CNC(=O)c1ccc(C=CC(=O)NCC(=O)N(C)c2ccc(C)c(CCl)c2C)cc1 | 232 |
| CCOC(=O)c1nc(C)n(Cc2ccc([N+](=O)[O-])cc2)c1C(=O)OCC | 109 |
| O=C1Nc2ccc(Cl)cc2C(c2ccccc2)=N[C@@H]1Cc1ccccc1 | 154 to 157 |
| NC(=O)c1c(Cl)c(-c2cncs2)n2c1CCCC2 | 227 |
| COc1cc2c(cc1O)c(-c1cc3cccnc3n1S(=O)(=O)c1ccc(C)cc1)cn2C | 211 to 214 |
| CCCOc1c(OC)cc(C=O)cc1S(=O)(=O)CCO | 111 to 112 |
| CNC(=O)[C@H](C)C[C@H](O)[C@H](CC1CCCCC1)NC(=O)OC(C)(C)C | 144 to 145 |
| Cn1cnc(Cc2cccc(CO)c2O)c1 | 139 to 144 |
| N=C1C2CC(F)CN2C(=O)CN1C1CCC(Cn2cncn2)C1 (stereo not given) | 158 to 162 |
| CCN1CC(=O)Nc2cc(Nc3ncc(Cl)c(Nc4ccccc4S(=O)(=O)C(C)C)n3)c(OC)cc2C1 | 175 |
| CNC(=O)c1cc(C#N)cc(C)c1N | 202 to 203 |
| CCSC(C)(C)C(=O)CC(=O)Nc1cc(NC(=O)C(CC)Oc2ccc(C(C)(C)CC)cc2C(C)(C)CC)ccc1Cl (stereo not given) | 65 to 68 |
| CN(C)C=NS(=O)(=O)c1ccc(F)c(F)c1 | 109 to 112 |
| CCOC(=O)C(C)Oc1ccc(N(C)c2cnc3cc(Cl)c(Cl)cc3n2)cc1 (stereo not given) | 79 |
| C#CCOc1ncc(F)cc1OC | 67 to 69 |
| CS(=O)(=O)CC(=O)N[C@H]1CC[C@H](CCN2CCN(c3nccc4c3OCC4)CC2)CC1 | 187 |

| Compound | melting point [°C] |
| --- | --- |
| Nc1nc(-c2cc(Cl)ccc2Cl)nc(N2CCNCC2)n1 | 163 to 165 |
| CCOC(=O)c1cn(CC)c2nc(N3CCCC3)ncc2c1=O | 202 |
| CC(=O)N[C@@H](C)c1ccc(CCl)cc1 | 114 to 116 |
| Cc1cc2c(s1)Oc1ccc(F)cc1NC2=O | 274 to 275 |
| Cc1ccc(C(=O)CO)cc1 | 83 to 87 |
| C[Si](C)(C)CCOC1OC(COC(=O)c2ccccc2)C(O)C(O)C1N=[N+]=[N-] (stereo not given) | 55 to 57 |
| Cc1c[nH]c(-c2ccc(OCC(O)CO)cc2)n1 (stereo not given) | 196 to 199 |
| CNc1cccc(C2C(C(=O)OC)=C(C)NC(C)=C2C(=O)OC)c1 | 182 to 184 |
| Cc1nc(C)c(C(C)(O)c2cccnc2)s1 (stereo not given) | 108 to 109 |
| CCc1cc(C#N)cc(C(=O)Nc2ccc(F)cn2)n1 | 184 |
| CCOCCOc1cc(N2C(=O)C3=C(CCCC3)C2=O)c(F)cc1C#N | 90 |
| Oc1ccc(-c2cc3cc(O)cc(Cn4ccnc4)c3o2)cc1 | 269 to 271 |
| CCCC(NC(C)C(=O)N1C(C(=O)O)CC2CCCCC21)C(=O)OCC (stereo not given) | 86 to 92 |
| CCC(C)(C)NC1=NS(=O)(=O)c2sc(Cl)cc2N1 | 359 to 360 |
| C[C@@H]1CCCN1CCc1ccc2cc(Br)ccc2n1 | 49 to 50 |
| CC(C)c1cc(Cc2cnc(N)nc2N)cc(C(C)C)c1N | 177 to 180 |
| Cc1cc2c(c(C3=NNC(=O)CC3C)c1)OCCN2 (stereo not given) | 160 to 162 |
| Cc1c(C)c(N2CCN(c3nccs3)CC2)c(C)c2c1OC(C)(C)C2 | 150 to 151 |
| CC(C)(C)C1OC1C(O)c1ccc(F)cc1 (stereo not given) | 56 to 59 |
| CCc1nc2cc(S(N)(=O)=O)c(Cl)cc2n1-c1ccc(CCNC(=O)NS(=O)(=O)c2ccc(C)cc2)cc1 | 163 to 170 |
| COc1ccccc1SCC1NCCS1 (stereo not given) | 111 to 112 |
| Cc1cc(C23CC4CC(CC(C4)C2)C3)ccc1NS(=O)(=O)c1cc([N+](=O)[O-])ccc1Cl | 238 |

More lines, now with the values ahead:

| melting point [°C] | Compound |
| --- | --- |
| 165 to 168 | CCCn1nc(C2CC2)c(C(=O)OCC)c1Cc1ccc(-c2ccccc2S(=O)(=O)NC(C)(C)C)cc1 |
| 135 to 141 | N#Cc1cccc(-c2ccc(O)cc2)c1 |
| 154 to 172 | O=C(O)[C@@H]1C[C@H](OS(=O)(=O)C2CCCCC2)CN1C(=O)c1ccccc1 |
| 173 to 174 | CCCCC(CNC(=O)Nc1c(C(C)C)cccc1C(C)C)c1cccc(C)c1 (stereo not given) |
| 144 to 146 | CC(C)c1csc(/C=C/c2cccc(NC(=O)Cc3ccccc3CC(=O)O)c2)n1 |
| 246 to 247 | COc1cc2c(c3c1OC(C)(C)C3)C(c1cccc(NC(C)=O)c1)=NC(C)(C)C2 |
| 160 to 161 | Cc1cc(C=O)c2ccccc2c1O |
| 105 to 108 | CCOC(=O)N(c1cccc(C(F)(F)F)c1)c1ccccc1N |
| 180 | Cc1cc(C)nc(NC(=O)NS(=O)(=O)c2ccccc2O)n1 |
| 91 to 94 | CCOC(=O)C=C(C)c1ccc(-c2ccc(Cl)cc2)cc1 |
| 320 | O=C(O)c1ccc(-n2cc(C3c4ccccc4C=Cc4ccccc43)c(=S)[nH]c2=O)cc1 |
| 174 to 176 | CN1CCC(c2c[nH]c3ccc(OS(=O)(=O)c4ccc(I)cc4)cc23)CC1 |
| 249 to 251 | O=C(O)Cn1c(-c2ccc([N+](=O)[O-])cc2)nc2cccnc21 |
| 174 | CSC(C(N)=O)c1cc(Cl)cc(C(=O)c2ccccc2)c1N (stereo not given) |
| 65 to 66 | CCC(CC)c1nn(-c2ccc(C(F)(F)F)cn2)cc1CCCOc1ccccc1CC(=O)O |
| 97 to 98 | COC(=O)c1c(Cl)c(-c2cccc(C(F)(F)F)c2)nn1C |
| 101 to 102 | Nc1n[nH]c2c(C(F)(F)F)cccc12 |
| 151 to 153 | Fc1ccccc1NC(=S)N1CCN(c2cnccn2)CC1 |
| 170 to 172 | CC(C)CCNc1nc(-c2ccccc2)c(-c2ccnc(Nc3ccccc3)n2)s1 |
| 138 to 140 | Clc1ccc(-c2cc(Cl)c3ccccc3n2)cc1Cl |
| 242 to 247 | Cc1cc(C)c(C)c(COc2cccc(-c3coc(C(=O)NNC(=O)c4ccc(O)c(C#N)c4)c3-c3ccccc3)c2)c1C |
| 155 to 158 | CC(=O)c1ccc(-c2ccc(O)c(F)c2)cc1 |
| 150 to 154 | Cc1c[nH]c(-c2ccc(OCC(O)CNC3CC3)cc2)n1 (stereo not given) |
| 134 to 136 | Cc1ccc(S(=O)(=O)Nc2ccccc2C#N)cc1 |
| 110 | COc1ccccc1-c1ccc2ccc(NC(=O)c3cccc(Br)c3)nc2n1 |
| 102 to 106 | CS(=O)(=O)Nc1cccc(NC(=O)C(=O)N2CCC(Cc3ccc(F)cc3)CC2)c1 |
| 83 | COC(=O)CCCc1cc2nc(Cl)ccc2n1S(=O)(=O)c1ccccc1F |
| 120 to 121 | COc1ccccc1C(C#N)(CC1CCCCO1)Cn1cncn1 (stereo not given) |

| melting point [°C] | Compound |
| --- | --- |
| 94 to 95 | N#Cc1cnc2ccc(-n3cccc3C=O)cc2c1Nc1cccc(Br)c1 |
| 152 to 154 | CC(C)(C)c1cc(-n2nc3ccc(S(=O)c4ccccc4)cc3n2)c(O)c(C(C)(C)C)c1 (stereo not given) |
| 81 to 83 | CCCCCCCCC(Sc1ccccn1)C(=O)Nc1cccc2cnccc12 (stereo not given) |
| 179 to 181 | COC(=O)C=Cc1ccc(OCC2CN(c3ccccc3)C(=O)O2)cc1 (stereo not given) |
| 60 | COC(=O)Cc1ccc(OCCNC(=O)C2Cc3ccccc3N2S(=O)(=O)c2ccc(-c3ccc(C)cc3)c(C(F)(F)F)c2)cc1 (stereo not given) |
| 266 to 267 | O=C(CN(Cc1ccccc1)c1c(C(=O)O)[nH]c2cc(Cl)cc(Cl)c12)c1ccccc1 |
| 236 to 239 | CS(=O)(=O)c1ccc(-c2cnn(-c3ccccc3[N+](=O)[O-])c(=O)c2-c2ccc(F)cc2)cc1 |
| 123 to 125 | COc1ccc([C@H]2N[C@H](c3ccc4c(c3)OCO4)c3ccccc32)cc1 (racemic) |
| 116 to 118 | CCCC(NS(=O)(=O)c1ccc(Cl)cc1)C(=S)Nc1ccc(CCC(=O)OC)cc1 (racemic) |
| 112 to 114 | C/C(=C\COC(=O)c1ccccc1)CCc1c(C)c(O)c(C)c(C)c1O |
| 164 to 166 | CCCCN(C)CCc1ccc(Nc2ncc3c(n2)-c2ccccc2[C@H](c2ccc(F)cc2)C3)cc1 |
| 174 to 176 | O=C(Nc1ccccc1)N1CC(Oc2ccc(C(F)(F)F)cc2)C1 |
| 234 to 237 | O=C(O)/C=C/C=C(c1cccc([N+](=O)[O-])c1)c1cccc([N+](=O)[O-])c1 |
| 96 to 97 | CCc1c(Oc2ccc([N+](=O)[O-])cc2C(F)(F)F)nn(C(=O)NC)c1C |
| 168 to 169 | COc1cc2c(c3c1OC(C)(C)C3)C(c1cccc(N(C(N)=O)c3cccnc3)c1)=NC(C)(C)C2 |
| < 40 | CCOC(=O)OC1CCN(C(=O)OCC)Cc2cc3ccccc3nc21 (stereo not given) |
| 168 to 170 | O=C(O)CCCCNC(=O)c1ccccc1NC(=O)c1ccccc1O |
| 298 to 300 | COc1cccc2c1C(=O)c1cccc3cc(O)cc-2c13 |
| 78 | Cc1ccccc1-c1cc(F)cc2c1NC(CN)CO2 (stereo not given) |
| 138 | O=C(O)CCCc1cc2nc(Cl)ccc2n1S(=O)(=O)c1ccccc1OC(F)(F)F |
| 143 to 144 | CC(C(=O)O)c1ccc(CCNC(=O)c2cccc3cccnc23)cc1 (stereo not given) |
| 75 to 76 | OC(CNCc1ccccc1)COc1ccc(CCOCC2CC2)cc1 (stereo not given) |
| 240 to 242 | CC(=O)c1cc2c(s1)CCc1cc(=O)n(-c3ccc(C)cc3)nc1-2 |
| 177 to 178 | COc1ccc(S(=O)(=O)N(CC(=O)NO)Cc2ccc3ccccc3n2)cc1 |
| 138 to 140 | NC(=O)CNC(=O)COc1ccccc1 |
| 123 to 124 | COCCOc1ccc(/C=C/COC(=O)NS(=O)(=O)N2CCCC2)c(Oc2ncc(C(F)(F)F)cc2Cl)c1 |
| 137 to 138 | CC(C)(C)C(=O)c1ccc(C(=O)NC(=O)CCc2ccccc2)cc1 |
